Test results taken from EP0590919A1, “Therapeutic agents for parkinson's disease” (KYOWA HAKKO KOGYO CO., LTD., priority 1992, dated 1994).

Assays:
[1] = system: dd-strain male mice; assay: Acute toxicity test (minimum lethal dose, oral); assay type: in vivo; settings: oral administration, three mice per group, mortality seven days after administration
Description: Test compounds were orally administered to groups of dd-strain male mice weighing 20 ± 1 g, each group consisting of three mice. Seven days after the administration, minimum lethal dose (MLD) of each compound was determined by observing the mortality.

[2] = system: Haloperidol-Induced Catalepsy; assay: Effect on haloperidol-induced catalepsy; assay type: in vivo, mice; settings: for ED50: Mus musculus, 1 h, ten mice at each dose, effective = catalepsy score 3 or less, Probit analysis, oral, read-out: ED₅₀; for Number of the Animals Showing Remission: of five mice, catalepsy score not more than 4 points; for Number of the Animals Showing Remission / Remission Rate (%) / Total Score: 10 mg/kg orally; for Remission Rate (%): rate of decrease in total score based on control group; for Total Score: total catalepsy score of five mice (25 points at the full), haloperidol 1.0 mg/kg i.p.
Description: Haloperidol (Janssen Pharmaceutica) suspended in 0.3% CMC was intraperitoneally administered to each mouse at a dose of 1.0 mg/kg. Test compounds were suspended in 0.3% CMC or in injectable distilled water (Otsuka Pharmaceutical Co., Ltd.) containing Tween 80. L-DOPA (Kyowa Hakko Kogyo Co., Ltd.) and benserazide hydrochloride (Kyowa Hakko Kogyo Co., Ltd.) were suspended in 0.3% CMC. One hour after the haloperidol administration, the test compound suspensions and the control suspension [injectable distilled water (Otsuka Pharmaceutical Co., Ltd.) containing Tween 80] containing no test compound were orally administered to separate groups of the mice (0.1 ml per 10 g of body weight). One hour after the administration of the test compound, the forelimbs of each mouse and subsequently the hindlimbs of the same mouse were placed on a 4.5 cm-high, 1.0 cm-wide bar and catalepsy was estimated. […] The catalepsy score and the standard of judgment are shown below. […] The number of the animals showing remission against catalepsy is the number of the mice for which the catalepsy score was not more than 4 points. […] The ED₅₀ values were calculated by Probit analysis.

[3] = molecular target: T1, A₂ receptor (Rattus norvegicus, UniProt P30543); assay: Adenosine A₂ receptor binding test (³H-NECA binding); settings: ³H-NECA binding, rat corpus striatum, read-out: Inhibition (%) A₂ Receptor; for inhibition at 100 µM: 10⁻⁴M; for inhibition at 10 µM: 10⁻⁵M; for inhibition at 1 µM: 10⁻⁶M; for inhibition at 0.1 µM: 10⁻⁷M
T1 construct: from tissue; host or cells: rat corpus striatum membrane preparation
T1 sequence (P30543 whole entry): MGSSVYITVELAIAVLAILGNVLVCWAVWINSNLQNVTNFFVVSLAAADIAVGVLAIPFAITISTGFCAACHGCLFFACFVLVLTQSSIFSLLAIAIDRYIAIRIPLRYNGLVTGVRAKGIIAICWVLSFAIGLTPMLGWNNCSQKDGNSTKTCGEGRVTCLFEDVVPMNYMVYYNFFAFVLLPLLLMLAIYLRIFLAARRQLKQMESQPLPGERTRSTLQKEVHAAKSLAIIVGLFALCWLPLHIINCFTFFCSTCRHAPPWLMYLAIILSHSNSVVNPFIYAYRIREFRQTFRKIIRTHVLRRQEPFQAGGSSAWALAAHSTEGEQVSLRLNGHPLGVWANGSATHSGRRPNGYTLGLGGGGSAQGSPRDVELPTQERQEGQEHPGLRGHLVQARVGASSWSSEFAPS
Description: The similar procedure as in the above-described adenosine A₁ receptor binding test was repeated using rat corpus striatum to obtain the final precipitate of the tissue thereof. The precipitate was suspended in 50 mM Tris HCl buffer containing 10 mM magnesium chloride and 0.02 unit/mg tissue of adenosine deaminase (manufactured by Sigma Co.) to give a tissue concentration of 5 mg (wet weight)/ml.
The mixture solution was allowed to stand at 25°C for 120 minutes and then treated in the same manner as in the adenosine A₁ receptor binding test to determine the radioactivity bound to the A₂ receptors.
The inhibition rate of the test compound against the binding of A₂ receptor (³H-NECA binding) was calculated by the following equation: [formula] [Notes] • 1.

| Compound | MLD [1] [mg/kg] | ED50 [2] [mg/kg] | Number of the Animals Showing Remission [2] | Remission Rate (%) [2] [%] | Total Score [2] | inhibition at 100 µM [3] [%] | inhibition at 10 µM [3] [%] | inhibition at 1 µM [3] [%] | inhibition at 0.1 µM [3] [%] |
| --- | --- | --- | --- | --- | --- | --- | --- | --- | --- |
| CCn1c(=O)c2c(nc(/C=C/c3ccc(OC)cc3OC)n2C)n(CC)c1=O [Compound 6, (E)-8-(2,4-Dimethoxystyryl)-1,3-diethyl-7-methylxanthine] | > 300 | 1.7 | 5 | 76 | 6 | – | – | – | – |
| CCn1c(=O)c2c(nc(/C=C/c3cc(C)c(OC)cc3C)n2C)n(CC)c1=O [Compound 12, (E)-1,3-Diethyl-8-(4-methoxy-2,5-dimethylstyryl)-7-methylxanthine] | > 300 | 2.7 | 5 | 52 | 12 | – | – | – | – |
| COc1ccc(/C=C/c2nc3c([nH]2)c(=O)n(C)c(=O)n3C)c(OC)c1C [Compound 31, (E)-8-(2,4-Dimethoxy-3-methylstyryl)theophylline] | > 100 | – | 4 | 36 | 16 | 79 | 89 | 82 | 74 |
| COc1ccc(/C=C/c2nc3c(c(=O)n(C)c(=O)n3C)n2C)c(OC)c1C [Compound 32, (E)-8-(2,4-Dimethoxy-3-methylstyryl)caffeine] | > 100 | – | 4 | 32 | 17 | 98 | 82 | 84 | 83 |
| CCn1c(=O)c2c(nc(/C=C/c3cc(C)ccc3C)n2C)n(CC)c1=O [Compound 34, (E)-8-(2,5-Dimethylstyryl)-1,3-diethyl-7-methylxanthine] | > 300 | 2.6 | 5 | 68 | 8 | 94 | 90 | 93 | 86 |
| CCOc1ccc(/C=C/c2nc3c(c(=O)n(CC)c(=O)n3CC)n2C)cc1 [Compound 36, (E)-8-(4-Ethoxystyryl)-1,3-diethyl-7-methylxanthine] | > 300 | 1.5 | 5 | 76 | 6 | – | – | 101 | 71 |
| CCCOc1ccc(/C=C/c2nc3c(c(=O)n(CC)c(=O)n3CC)n2C)cc1 [Compound 38, (E)-1,3-Diethyl-7-methyl-8-(4-propoxystyryl)xanthine] | > 300 | 2.5 | 4 | 68 | 8 | – | – | 94 | 71 |
| CCn1c(=O)c2c(nc(/C=C/c3ccc(OC)c(OC)c3Cl)n2C)n(CC)c1=O [Compound 50, (E)-8-(2-Chloro-3,4-dimethoxystyryl)-1,3-diethyl-7-methylxanthine] | > 300 | 3.8 | 4 | 24 | 19 | 93 | 88 | 95 | 88 |
| COc1ccc(/C=C/c2nc3c(c(=O)n(C)c(=O)n3C)n2C)c(Cl)c1OC [Compound 52, (E)-8-(2-Chloro-3,4-dimethoxystyryl)caffeine] | > 300 | 1.7 | 5 | 60 | 10 | 83 | 81 | 88 | 78 |
| CCn1c(=O)c2c(nc(/C=C/c3ccc(F)c(F)c3)n2C)n(CC)c1=O [Compound 54, (E)-8-(3,4-Difluorostyryl)-1,3-diethyl-7-methylxanthine] | > 300 | – | 5 | 28 | 18 | 96 | 95 | 94 | 63 |
| CCn1c(=O)c2c(nc(/C=C/c3ccc(OC)c(Br)c3)n2C)n(CC)c1=O [Compound 56, (E)-8-(3-Bromo-4-methoxystyryl)-1,3-diethyl-7-methylxanthine] | > 100 | – | 5 | 44 | 14 | 99 | 97 | 92 | 74 |
| CCn1c(=O)c2[nH]c(/C=C/c3cccc(OC)c3[N+](=O)[O-])nc2n(CC)c1=O [Compound 63, (E)-1,3-Diethyl-8-(3-methoxy-2-nitrostyryl)xanthine] | > 300 | – | 3 | 32 | 17 | 79 | 74 | – | – |
| CCn1c(=O)c2[nH]c(/C=C/c3cccc(F)c3)nc2n(CC)c1=O [Compound 65, (E)-1,3-Diethyl-8-(3-fluorostyryl)xanthine] | > 100 | – | – | – | – | – | – | 64 | 64 |
| CCn1c(=O)c2c(nc(/C=C/c3cccc(F)c3)n2C)n(CC)c1=O [Compound 66, (E)-1,3-Diethyl-8-(3-fluorostyryl)-7-methylxanthine] | > 300 | – | – | – | – | – | – | 93 | 78 |
| CCn1c(=O)c2[nH]c(/C=C/c3cc(OC)cc(OC)c3)nc2n(CC)c1=O [Compound 67, (E)-8-(3,5-Dimethoxystyryl)-1,3-diethylxanthine] | > 100 | – | 5 | 64 | 9 | – | – | 73 | 73 |
| CCn1c(=O)c2c(nc(/C=C/c3cc(OC)cc(OC)c3)n2C)n(CC)c1=O [Compound 68, (E)-8-(3,5-Dimethoxystyryl)-1,3-diethyl-7-methylxanthine] | > 300 | – | 5 | 80 | 5 | – | – | 88 | 81 |
| CCn1c(=O)c2c(nc(/C=C/c3cccc(Cl)c3)n2C)n(CC)c1=O [Compound 70, (E)-8-(3-Chlorostyryl)-1,3-diethyl-7-methylxanthine] | > 300 | – | 4 | 44 | 14 | – | – | 84 | 76 |
| CCn1c(=O)c2c(nc(/C(F)=C\c3ccccc3)n2C)n(CC)c1=O [Compound 76, (E)-1,3-Diethyl-8-(α-fluorostyryl)-7-methylxanthine] | > 100 | – | 4 | 40 | 15 | – | – | 69 | 30 |
| CCn1c(=O)c2[nH]c(/C=C/c3ccc(N(C)C)cc3)nc2n(CC)c1=O [Compound 99, (E)-8-[4-(N,N-Dimethylamino)styryl]-1,3-diethylxanthine] | > 100 | – | – | – | – | – | – | 64 | 25 |
